Laboratory results as given in patent publication US12539292B2, “BRM targeting compounds and associated methods of use” (Arvinas Operations, Inc., priority 2018, dated 2026).

Target: T1, BRM (Homo sapiens, UniProt P51531)
T1 construct: In-Cell Western Screen of BRM Degradation in SW1573 Cells; endogenous in cells; host or cells: SW1573
Test: In-cell Western screen of BRM degradation in SW1573 cells (Dmax and DC50)
Type: cell-based
Settings: BRM degradation, SW1573 cells; for DC50: read-out: DC50; for Dmax: read-out: Dmax (% degraded)
How it was run: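 SW1573 cells were treated overnight (18-20 hours) with compound at 0.1% final DMSO. They were then PFA-fixed, permeabilised with Triton X-100 and immunostained with 800 nm/680 nm secondary antibodies. BRM signal was quantified by LI-COR in-cell Western imaging to derive Dmax and DC50.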

T1 sequence (P51531 whole entry): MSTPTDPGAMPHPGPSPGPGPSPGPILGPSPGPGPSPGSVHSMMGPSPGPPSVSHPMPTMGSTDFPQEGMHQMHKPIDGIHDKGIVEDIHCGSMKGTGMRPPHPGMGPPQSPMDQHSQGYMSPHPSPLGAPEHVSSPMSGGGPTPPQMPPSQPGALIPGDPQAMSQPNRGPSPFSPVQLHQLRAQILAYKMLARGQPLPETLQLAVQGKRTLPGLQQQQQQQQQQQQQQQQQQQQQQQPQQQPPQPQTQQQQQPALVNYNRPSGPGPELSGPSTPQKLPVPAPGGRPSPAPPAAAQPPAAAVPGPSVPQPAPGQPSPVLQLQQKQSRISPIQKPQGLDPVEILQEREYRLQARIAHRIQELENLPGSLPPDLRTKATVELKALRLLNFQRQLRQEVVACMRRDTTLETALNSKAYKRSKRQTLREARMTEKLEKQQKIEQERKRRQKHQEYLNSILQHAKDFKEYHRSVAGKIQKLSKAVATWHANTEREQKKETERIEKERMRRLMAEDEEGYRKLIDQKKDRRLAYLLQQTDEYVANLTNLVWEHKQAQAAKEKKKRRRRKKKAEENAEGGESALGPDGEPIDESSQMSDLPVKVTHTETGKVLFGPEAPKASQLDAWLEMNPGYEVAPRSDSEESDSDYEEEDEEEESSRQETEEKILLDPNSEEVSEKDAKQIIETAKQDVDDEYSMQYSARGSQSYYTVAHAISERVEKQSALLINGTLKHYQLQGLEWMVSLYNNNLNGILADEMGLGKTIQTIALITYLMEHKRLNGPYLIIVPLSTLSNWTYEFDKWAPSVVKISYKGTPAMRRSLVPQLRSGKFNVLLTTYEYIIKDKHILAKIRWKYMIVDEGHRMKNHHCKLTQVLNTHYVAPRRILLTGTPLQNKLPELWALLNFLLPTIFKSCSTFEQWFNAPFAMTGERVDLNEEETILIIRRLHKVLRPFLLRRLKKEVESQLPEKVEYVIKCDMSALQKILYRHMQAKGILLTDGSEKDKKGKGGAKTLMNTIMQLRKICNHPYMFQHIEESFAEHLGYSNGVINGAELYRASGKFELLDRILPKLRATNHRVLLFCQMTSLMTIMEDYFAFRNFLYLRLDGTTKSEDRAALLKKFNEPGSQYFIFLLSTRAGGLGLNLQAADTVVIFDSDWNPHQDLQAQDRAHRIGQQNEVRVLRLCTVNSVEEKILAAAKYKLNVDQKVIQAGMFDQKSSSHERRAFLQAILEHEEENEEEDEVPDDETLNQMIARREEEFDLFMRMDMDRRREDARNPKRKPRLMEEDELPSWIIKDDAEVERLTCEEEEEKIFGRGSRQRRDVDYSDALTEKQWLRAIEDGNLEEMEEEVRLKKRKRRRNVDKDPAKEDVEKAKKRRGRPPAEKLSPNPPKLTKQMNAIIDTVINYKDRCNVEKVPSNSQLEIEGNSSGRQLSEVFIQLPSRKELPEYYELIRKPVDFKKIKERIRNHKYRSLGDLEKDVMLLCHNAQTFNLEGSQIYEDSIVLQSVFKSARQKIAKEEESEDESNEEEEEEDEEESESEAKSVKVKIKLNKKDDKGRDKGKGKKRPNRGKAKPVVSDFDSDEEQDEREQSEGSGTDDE

| Compound | DC50 [nM] | Dmax [%] | Dmax (%) (% degraded) (when tested at the top concentration of between 0.3 and 10 μM) |
| --- | --- | --- | --- |
| Cc1ncsc1-c1ccc([C@H](C)NC(=O)[C@@H]2C[C@@H](O)CN2C(=O)[C@@H](c2cc(N3CCN(C(C)(C)C4CCN(C[C@H]5C[C@H](Oc6cc(N7C8CCC7CN(c7cc(-c9ccccc9O)nnc7N)C8)ccn6)C5)CC4)CC3)no2)C(C)C)cc1 [compound 715, (2S,4R)-1-((2R)-2-(3-(4-(2-(1-(((1r,3r)-3-((4-(3-(3-amino-6-(2-hydroxyphenyl)pyridazin-4-yl)-3,8-diazabicyclo[3.2.1]octan-8-yl)pyridin-2-yl)oxy)cyclobutyl)methyl)piperidin-4-yl)propan-2-yl)piperazin-1-yl)isoxazol-5-yl)-3-methylbutanoyl)-4-hydroxy-N-((S)-1-(4-(4-methylthiazol-5-yl)phenyl)ethyl)pyrrolidine-2-carboxamide] | < 2.5 | > 75 |  |
| Cc1ncsc1-c1ccc([C@H](C)NC(=O)[C@@H]2C[C@@H](O)CN2C(=O)[C@@H](c2cc(N3CCC(CN4CCC(O[C@H]5C[C@H](Oc6cc(N7CCOC8(CCN(c9cc(-c%10ccccc%10O)nnc9N)CC8)C7)ccn6)C5)CC4)CC3)no2)C(C)C)cc1 [compound 716, (2S,4R)-1-((R)-2-(3-(4-((4-((1r,3r)-3-((4-(9-(3-amino-6-(2-hydroxyphenyl)pyridazin-4-yl)-1-oxa-4,9-diazaspiro[5.5]undecan-4-yl)pyridin-2-yl)oxy)cyclobutoxy)piperidin-1-yl)methyl)piperidin-1-yl)isoxazol-5-yl)-3-methylbutanoyl)-4-hydroxy-N-((S)-1-(4-(4-methylthiazol-5-yl)phenyl)ethyl)pyrrolidine-2-carboxamide] | < 2.5 | > 75 |  |
| (2S,4R)-1-((2R)-2-(3-(2-(4-((1r,3R)- 3-((4-(3-(3-amino-6-(2- hydroxyphenyl)pyridazin-4-yl)-3,8- diazabicyclo[3.2.1]octan-8- yl)pyridin-2- yl)oxy)cyclobutoxy)piperidin-1- yl)ethoxy)isoxazol-5-yl)-3- methylbutanoyl)-4-hydroxy-N-(4-(4- methylthiazol-5- yl)benzyl)pyrrolidine-2-carboxamide [compound 146] | < 2.5 |  | A (A > 75) |
